# From patent US6525001B1, “Substituted pyrimidine and pyridine herbicides” (Mid-American Commercialization Corporation, priority 1997, dated 2003)
# Key:
# Format in all cases: in vivo
# [1] = system: duck salad (Heteranthera limosa); test: Test B flood test
# Procedure: (§1) At the same time, these crop and weed species were also treated with postemergence applications of test chemicals formulated in the same manner. Plants ranged in height from 2 to 18 cm (1- to 4-leaf stage) for postemergence treatments. Plant species in the flood test consisted of rice (Oryza sativa), smallflower flatsedge (Cyperus difformis), duck salad (Heteranthera limosa) and bamyardgrass (Echinochloa crus-galli) grown to the 2-leaf stage for testing. Treated plants and controls were maintained in a greenhouse for twelve to sixteen days, after which all species were compared to controls and visually evaluated. Plant response ratings, summarized in Table B, are based on a scale of 0 to 10 where 0 is no effect and 10 is complete control. A dash (−) response means no test result.
# [2] = system: bamyardgrass (Echinochloa crus-galli); test: Test B flood test
# Procedure: as §1
# [3] = system: smallflower flatsedge (Cyperus difformis); test: Test B flood test
# Procedure: as §1
# rice (Oryza sativa) = test: Test B flood test
# Procedure: as §1
# [4] = system: pigweed (Amaranthus retroflexus); test: Test B pre-/postemergence; design: key: 0 is no effect; 10 is complete control
# From the text: (§2) Seeds of bedstraw (Galium aparine), blackgrass (Alopecurus myosuroides), broadleaf signalgrass (Brachiaria decumbens), cocklebur (Xanthium strumarium), corn (Zea mays), crabgrass (Digitaria sanguinalis), giant foxtail (Setaria faberii), lambsquarters (Chenopodium album), momingglory (Ipomoea hederacea), pigweed (Amaranthus retroflexus), rape (Brassica napus), soybean (Glycine max), sugar beet (Beta vulgaris), velvetleaf (Abutilon theophrasti), wheat (Triticum aestivum), wild oat (Avena fatua) and purple nutsedge (Cyperus rotundus) tubers were planted and treated preemergence with test chemicals formulated in a non-phytotoxic solvent mixture which included a surfactant.
# as §1
# [5] = system: crabgrass (Digitaria sanguinalis); test: Test B pre-/postemergence; design: key: 0 is no effect; 10 is complete control; details: for Crabgrass plant response rating: Preemergence
# From the text: as §2, §1
# [6] = system: bedstraw (Galium aparine); test: Test B pre-/postemergence; design: key: 0 is no effect; 10 is complete control; details: for Bedstraw plant response rating: Preemergence
# From the text: as §2, §1
# soybean (Glycine max) = test: Test B pre-/postemergence; design: key: 0 is no effect; 10 is complete control
# From the text: as §2, §1
# [7] = system: blackgrass (Alopecurus myosuroides); test: Test B pre-/postemergence; design: key: 0 is no effect; 10 is complete control; details: for Blackgrass plant response rating: Preemergence
# From the text: as §2, §1
# [8] = system: wheat (Triticum aestivum); test: Test B pre-/postemergence; design: key: 0 is no effect; 10 is complete control
# From the text: as §2, §1
# [9] = system: broadleaf signalgrass (Brachiaria decumbens); test: Test B pre-/postemergence; design: key: 0 is no effect; 10 is complete control; details: for B. signalgrass plant response rating: Preemergence
# From the text: as §2, §1
# [10] = system: momingglory (Ipomoea hederacea); test: Test B pre-/postemergence; design: key: 0 is no effect; 10 is complete control
# From the text: as §2, §1
# corn (Zea mays) = test: Test B pre-/postemergence; design: key: 0 is no effect; 10 is complete control; details: for Corn plant response rating: Preemergence
# From the text: as §2, §1
# [11] = system: cocklebur (Xanthium strumarium); test: Test B pre-/postemergence; design: key: 0 is no effect; 10 is complete control; details: for Cocklebur plant response rating: Preemergence
# From the text: as §2, §1
# wild oat (Avena fatua) = test: Test B pre-/postemergence; design: key: 0 is no effect; 10 is complete control
# From the text: as §2, §1
# rape (Brassica napus) = test: Test B pre-/postemergence; design: key: 0 is no effect; 10 is complete control
# From the text: as §2, §1
# [12] = system: sugar beet (Beta vulgaris); test: Test B pre-/postemergence; design: key: 0 is no effect; 10 is complete control
# From the text: as §2, §1
# [13] = system: velvetleaf (Abutilon theophrasti); test: Test B pre-/postemergence; design: key: 0 is no effect; 10 is complete control
# From the text: as §2, §1
# [14] = system: giant foxtail (Setaria faberii); test: Test B pre-/postemergence; design: key: 0 is no effect; 10 is complete control
# From the text: as §2, §1
# [15] = Rate 62 g/ha, Postemergence (flood test)
# [16] = Rate 125 g/ha, Postemergence, flood test
# [17] = Rate 250 g/ha, Postemergence (flood test species)
# [18] = Rate 125 g/ha, Postemergence section (flood test species)
# [19] = Rate 250 g/ha, Postemergence (so in the source)
compound,measurement,setting,value
CCc1cnc(-n2ccc(C(F)(F)F)n2)nc1Cc1cccc(OC(F)(F)F)c1 [Compound 47],"Plant response rating, Ducksalad",[1]; [15],3
same,"Plant response rating, Ducksalad",[1]; [16],3
same,"Plant response rating, Ducksalad",[1]; [17],7
same,"Plant response rating, Barnyardgrass",[2]; [15],2
same,"Plant response rating, Barnyardgrass",[2]; [16],3
same,"Plant response rating, Barnyardgrass",[2]; [17],6
same,"Plant response rating, S. Flatsedge",[3]; [15],7
same,S. Flatsedge plant response rating,[3]; [18],7
same,"Plant response rating, S. Flatsedge",[3]; [17],9
same,"Plant response rating, Rice",rice (Oryza sativa); [15],3
same,Rice plant response rating,rice (Oryza sativa); [18],5
same,"Plant response rating, Rice",rice (Oryza sativa); [17],6
same,"Plant response rating, Redroot pigweed","[4]; Rate 62 g/ha, Postemergence",9
same,Redroot pigweed plant response rating,"[4]; Rate 62 g/ha, Preemergence",8
same,Redroot pigweed plant response rating,"[4]; Rate 125 g/ha, Postemergence",9
same,Redroot pigweed plant response rating,"[4]; Rate 125 g/ha, Preemergence",9
same,"Plant response rating, Redroot pigweed","[4]; Rate 250 g/ha, Postemergence",9
same,"Plant response rating, Redroot pigweed",[4]; [19],10
same,"Plant response rating, Crabgrass","[5]; Rate 62 g/ha, Postemergence",7
same,Crabgrass plant response rating,[5]; Rate 62 g/ha,8
same,"Plant response rating, Crabgrass","[5]; Rate 125 g/ha, Postemergence",9
same,Crabgrass plant response rating,[5]; Rate 125 g/ha,10
same,"Plant response rating, Crabgrass","[5]; Rate 250 g/ha, Postemergence",10
same,"Plant response rating, Crabgrass",[5]; [19],10
same,"Plant response rating, Bedstraw","[6]; Rate 62 g/ha, Postemergence",9
same,Bedstraw plant response rating,[6]; Rate 62 g/ha,7
same,Bedstraw plant response rating,[6]; Rate 125 g/ha,8
same,"Plant response rating, Bedstraw",[6]; [19],8
same,"Plant response rating, Soybean","soybean (Glycine max); Rate 62 g/ha, Postemergence",8
same,Soybean plant response rating,"soybean (Glycine max); Rate 62 g/ha, Preemergence",0
same,Soybean plant response rating,"soybean (Glycine max); Rate 125 g/ha, Postemergence",8
same,"Plant response rating, Soybean","soybean (Glycine max); Rate 125 g/ha, Preemergence",0
same,"Plant response rating, Soybean","soybean (Glycine max); Rate 250 g/ha, Postemergence",7
same,"Plant response rating, Soybean",soybean (Glycine max); [19],2
same,"Plant response rating, Blackgrass","[7]; Rate 62 g/ha, Postemergence",5
same,Blackgrass plant response rating,[7]; Rate 62 g/ha,3
same,"Plant response rating, Blackgrass","[7]; Rate 125 g/ha, Postemergence",5
same,Blackgrass plant response rating,[7]; Rate 125 g/ha,8
same,"Plant response rating, Blackgrass","[7]; Rate 250 g/ha, Postemergence",6
same,"Plant response rating, Blackgrass",[7]; [19],10
same,Wheat plant response rating,"[8]; Rate 62 g/ha, Postemergence",5
same,Wheat plant response rating,"[8]; Rate 62 g/ha, Preemergence",2
same,Wheat plant response rating,"[8]; Rate 125 g/ha, Postemergence",5
same,"Plant response rating, Wheat","[8]; Rate 125 g/ha, Preemergence",3
same,"Plant response rating, Wheat","[8]; Rate 250 g/ha, Postemergence",6
same,"Plant response rating, Wheat",[8]; [19],5
same,"Plant response rating, B. signalgrass","[9]; Rate 62 g/ha, Postemergence",4
same,B. signalgrass plant response rating,[9]; Rate 62 g/ha,5
same,"Plant response rating, B. signalgrass","[9]; Rate 125 g/ha, Postemergence",5
same,B. signalgrass plant response rating,[9]; Rate 125 g/ha,6
same,"Plant response rating, B. signalgrass","[9]; Rate 250 g/ha, Postemergence",8
same,"Plant response rating, B. signalgrass","[9]; Rate 250 g/ha, Postemergence as printed in head r139 (second section for compounds 26-50)",9
same,"Plant response rating, Morningglory","[10]; Rate 62 g/ha, Postemergence",6
same,Morningglory plant response rating,"[10]; Rate 62 g/ha, Preemergence",1
same,Morningglory plant response rating,"[10]; Rate 125 g/ha, Postemergence",6
same,Morningglory plant response rating,"[10]; Rate 125 g/ha, Preemergence",6
same,"Plant response rating, Morningglory","[10]; Rate 250 g/ha, Postemergence",8
same,"Plant response rating, Morningglory",[10]; [19],6
same,"Plant response rating, Corn","corn (Zea mays); Rate 62 g/ha, Postemergence",3
same,Corn plant response rating,corn (Zea mays); Rate 62 g/ha,1
same,"Plant response rating, Corn","corn (Zea mays); Rate 125 g/ha, Postemergence",3
same,Corn plant response rating,corn (Zea mays); Rate 125 g/ha,2
same,"Plant response rating, Corn","corn (Zea mays); Rate 250 g/ha, Postemergence",4
same,"Plant response rating, Corn",corn (Zea mays); [19],3
same,"Plant response rating, Cocklebur","[11]; Rate 62 g/ha, Postemergence",7
same,Cocklebur plant response rating,[11]; Rate 62 g/ha,1
same,"Plant response rating, Cocklebur","[11]; Rate 125 g/ha, Postemergence",8
same,Cocklebur plant response rating,[11]; Rate 125 g/ha,2
same,"Plant response rating, Cocklebur","[11]; Rate 250 g/ha, Postemergence",8
same,"Plant response rating, Cocklebur",[11]; [19],2
same,Wild oats plant response rating,"wild oat (Avena fatua); Rate 62 g/ha, Postemergence",6
same,Wild oats plant response rating,"wild oat (Avena fatua); Rate 62 g/ha, Preemergence",9
same,Wild oats plant response rating,"wild oat (Avena fatua); Rate 125 g/ha, Postemergence",8
same,"Plant response rating, Wild oats","wild oat (Avena fatua); Rate 125 g/ha, Preemergence",9
same,"Plant response rating, Wild oats","wild oat (Avena fatua); Rate 250 g/ha, Postemergence",9
same,"Plant response rating, Wild oats",wild oat (Avena fatua); [19],10
same,"Plant response rating, Rape","rape (Brassica napus); Rate 62 g/ha, Postemergence",10
same,Rape plant response rating,"rape (Brassica napus); Rate 62 g/ha, Preemergence",7
same,Rape plant response rating,"rape (Brassica napus); Rate 125 g/ha, Postemergence",10
same,Rape plant response rating,"rape (Brassica napus); Rate 125 g/ha, Preemergence",9
same,"Plant response rating, Rape","rape (Brassica napus); Rate 250 g/ha, Postemergence",10
same,"Plant response rating, Rape",rape (Brassica napus); [19],10
same,"Plant response rating, Sugarbeets","[12]; Rate 62 g/ha, Postemergence",9
same,Sugarbeets plant response rating,"[12]; Rate 62 g/ha, Preemergence",7
same,Sugarbeets plant response rating,"[12]; Rate 125 g/ha, Postemergence",9
same,"Plant response rating, Sugarbeets","[12]; Rate 125 g/ha, Preemergence",7
same,"Plant response rating, Sugarbeets","[12]; Rate 250 g/ha, Postemergence",9
same,"Plant response rating, Sugarbeets",[12]; [19],9
same,"Plant response rating, Velvetleaf","[13]; Rate 62 g/ha, Postemergence",7
same,Velvetleaf plant response rating,"[13]; Rate 62 g/ha, Preemergence",8
same,Velvetleaf plant response rating,"[13]; Rate 125 g/ha, Postemergence",7
same,"Plant response rating, Velvetleaf","[13]; Rate 125 g/ha, Preemergence",10
same,"Plant response rating, Velvetleaf","[13]; Rate 250 g/ha, Postemergence",8
same,"Plant response rating, Velvetleaf",[13]; [19],10
same,"Plant response rating, Giant foxtail","[14]; Rate 62 g/ha, Postemergence",4
same,Giant foxtail plant response rating,"[14]; Rate 62 g/ha, Preemergence",9
same,Giant foxtail plant response rating,"[14]; Rate 125 g/ha, Postemergence",4
same,Giant foxtail plant response rating,"[14]; Rate 125 g/ha, Preemergence",10
same,"Plant response rating, Giant foxtail","[14]; Rate 250 g/ha, Postemergence",7
same,"Plant response rating, Giant foxtail",[14]; [19],10
